Laboratory results published in patent US8563602B2, “Method of improving animal tissue quality by supplementing the animal diet with oleic acid and selected tocols” (E.I. du Pont de Nemours and Co., priority 2004, dated 2013).
Marks after values point to notes of the source that are not given here.

Key:
swine [1] = assay: 2003 swine feed test: belly thickness and flex; type: in vivo; conditions: recalculated from Table 2: oleic acid level High or tocotrienol addition 225 ppm
From the text: (§1) Applicants assessed the effects of supplementing the animal diet with oleic acid and tocotrienol on pork meat quality in an experiment in which data from pigs fed one of four dietary treatments were compared. Seventy-two barrows (approximately 20 kg) were randomly placed in pens with water and feed provided ad libitum at the Pioneer Livestock Nutrition Center (PLNC) in Polk City, Iowa. Ad libitum swine feeding continued for 49 days (through Mar. 4, 2003) until the average weight reached 32 kg. A uniform group of 64 pigs was selected, and the pigs were randomly assigned to each of four treatments with 16 experimental units (individually housed pigs) per dietary treatment.
(§2) On Apr. 22, 2003 (Day 1 of the feed test) the feeders were emptied and the dietary treatments were commenced and continued until Jul. 14, 2003 (Day 83). Dietary treatments consisted of two levels of oleic acid (normal and high) with or without tocotrienol (0 or 225 ppm), as summarized below:
In the normal or control (CO) diet, the total dietary content of oil was 5.5 wt % of the feed. The oil was a typical corn oil having an oleic acid content of 29.6 wt % of the fatty acid fraction. In the high-oleic acid (HO) diet, the total dietary content of oil was still 5.5 wt %, but the oil was high-oleic sunflower oil with an oleic acid content of 80.2 wt % of the fatty acid fraction. The high oleic sunflower oil was purchased from Cargill, Inc. All four experimental diets were formulated with soybean meal and corn flaking grits. The latter, being largely devoid of oil, were used in conjunction with the corn and high-oleic vegetable oils to achieve the desired dietary fatty acid content. […]
The pigs were slaughtered at an average weight of 120 kg on Jul. […] Following a 24 hour chill period, the carcasses were transferred to the University of Missouri processing lab, where weight yields were recorded and meat tissue was evaluated.
The right pork carcass side was fabricated into primal and sub-primal cuts and the bellies were evaluated for thickness, firmness and fatty acid profile.

swine [2] = assay: 2003 swine feed test: belly adipose tissue fatty acid composition and iodine value; type: in vivo; conditions: recalculated from Table 4: oleic acid level High or tocotrienol addition 225 ppm
From the text: as §1, §2
In the normal or control (CO) diet, the total dietary content of oil was 5.5 wt % of the feed. The oil was a typical corn oil having an oleic acid content of 29.6 wt % of the fatty acid fraction. In the high-oleic acid (HO) diet, the total dietary content of oil was still 5.5 wt %, but the oil was high-oleic sunflower oil with an oleic acid content of 80.2 wt % of the fatty acid fraction. The high oleic sunflower oil was purchased from Cargill, Inc. All four experimental diets were formulated with soybean meal and corn flaking grits. The latter, being largely devoid of oil, were used in conjunction with the corn and high-oleic vegetable oils to achieve the desired dietary fatty acid content.
The tocotrienol used to supplement the (TT) and the (HO+TT) diets was obtained commercially from Fuji Chemical Industries (U.S.A.) Inc. of Robbinsville, N.J., and contained 7.5% alpha-, 12.3% gamma- and 3.0% delta-tocotrienol (a total tocotrienol content of 22.8%), as well as 7.2% alpha-tocopherol.
The fatty acid composition and iodine values in the pork belly adipose tissue was measured.

swine [3] = assay: 2003 swine feed test: ground pork visual color score on simulated retail display; type: in vivo; conditions: recalculated from Table 6: oleic acid level High or tocotrienol addition 225 ppm
From the text: as §1, §2
(§3) Samples of ground pork were packaged in PVC wrap and kept on simulated retail display for seven days. During that time trained panelists made a subjective determination of the overall color score and percent discoloration of the ground pork.
Overall color was graded on a scale of 1.0 to 5.0 as follows: 1.0=bright grayish-pink or reddish-pink (acceptable), 2.0=grayish-pink or reddish-pink (acceptable), 3.0=slightly dark pink/red/pink/tan(acceptable), 3.5=threshold of retail acceptability, 4.0=moderately tan/pinkish-red (unacceptable), and 5.0=dark tan or dark pinkish-red (unacceptable).

swine [4] = assay: 2003 swine feed test: ground pork discoloration on simulated retail display; type: in vivo; conditions: recalculated from Table 8: oleic acid level High or tocotrienol addition 225 ppm
From the text: as §1, §2, §3
Percent discoloration was also determined subjectively. In the table that follows, a higher number indicates a greater percent discoloration: […]

swine [5] = assay: 2003 swine feed test: TBARS content of uncooked and cooked ground pork; type: in vivo; conditions: recalculated from Table 10: oleic acid level High or tocotrienol addition 225 ppm
From the text: as §1, §2
[…]. Cooked ground pork was measured for TBARS concentration at 0 hours and 24 hours after cooking.

steers = assay: 2004 cattle feed test: uncooked ribeye steak discoloration; type: in vivo; conditions: recalculated from Table 16: oleic acid level High or tocotrienol addition 150 ppm
From the text: Applicants assessed the effects of supplementing the animal diet with oleic acid and tocotrienol on beef quality in an experiment in which data from steers fed one of four dietary treatments were compared. The steers were blocked by weight (heavy or light) and assigned to eight outdoor group pens with five steers per pen. Pens were randomly assigned within each of the two weight blocks to four dietary treatments: (1) simulated oil-rich corn grain (coarse corn grits with corn oil added as 6% of the weight of the grits plus oil) (CO); (2) simulated oil-rich corn grain (coarse corn grits with a similar level of corn oil) with supplemental tocotrienol (CO+TT), (3) simulated high oleic acid corn grain (coarse corn grits with high oleic sunflower oil added as 6% of the weight of the grits plus oil) (HO); and (4) simulated high oleic acid corn grain (coarse corn grits with high oleic sunflower oil added as 6% of the weight of the grits plus oil) with supplemental tocotrienol (HO+TT); as summarized below:
The steers were fed their respective dietary supplements for 133 days starting Apr. 12, 2004 and ending Aug. 23, 2004. The cattle were loaded on Aug. 24, 2004 and transported to Emporia, Kans. for harvest at the IBP packing plant. Steaks and ground beef samples were evaluated for, among other things, color, shelf life (as measured by percent discoloration over time) and rancidity (as measured by TBARS concentration over time).
Ribeye steaks utilized for color evaluation were placed onto 17S foam trays with meat, fish and poultry pads (Dri-Loc AC-50) and wrapped with polyvinyl chloride (PVC) film. The steaks were placed under simulated retail display at 34+/−3 degree F. in open top cases programmed to defrost twice daily for seven days. During that time trained panelists made subjective determinations of the overall color score and percent discoloration of the ribeye steaks. […]
Percent discoloration was also determined subjectively. […]

[6] = In vitro addition of gamma-tocopherol to ground pork: TBARS of cooked patties; conditions: GT 100 ppm added in vitro to raw ground pork, HO = pork from swine fed high oleic diet
Method: Applicants assessed the effects of in vitro addition of gamma-tocopherol to ground pork from swine fed a diet supplemented with oleic acid in order to evaluate gamma tocopherol's value as an animal feed supplement when used in conjunction with oleic acid. Gamma-tocopherol was added to the raw (uncooked) ground pork from swine whose diet was not supplemented with oleic acid and swine whose diet was supplemented with oleic acid. Ground pork from pigs fed the respective treatments were formed into patties, cooked and refrigerated for two days in plastic pouches. Samples of the cooked patties were then submitted for TBARS (thiobarbituric acid reactive substances) determination at 0 hours and 24 hours following refrigeration.

CCCCCCCC/C=C\CCCCCCCC(=O)O [Oleic Acid, oleic acid]
Belly thickness (swine [1]): 35.6 mm
Lateral flex (swine [1]): 11.0^b
Vertical flex (swine [1]): 18.7
Iodine Value (IV) (swine [2]): 63.7^b
Monounsaturated Fatty Acid (MUFA) (swine [2]): 55.55^b
Polyunsaturated Fatty Acids (PUFA) (swine [2]): 9.67^b
Ground pork visual color score (swine [3]; Day 3): 1.81
Ground pork visual color score (swine [3]; Day 4): 2.67
Ground pork visual color score (swine [3]; Day 5): 4.38
Ground pork discoloration (swine [4]; Day 3): 2.41
Ground pork discoloration (swine [4]; Day 4): 2.84
Ground pork discoloration (swine [4]; Day 5): 4.64
Ground pork oxidation (TBARS) (swine [5]; cooked, 0 hours): 0.69^b mg malonaldehyde/kg sample
Ground pork oxidation (TBARS) (swine [5]; cooked, 24 hours): 1.73^b mg malonaldehyde/kg sample
Ground pork oxidation (TBARS) (swine [5]; uncooked, Day 0): 0.28 mg malonaldehyde/kg sample
Ground pork oxidation (TBARS) (swine [5]; uncooked, Day 4): 0.34 mg malonaldehyde/kg sample
Ground pork oxidation (TBARS) (swine [5]; uncooked, Day 7): 0.41 mg malonaldehyde/kg sample
Uncooked ribeye steak discoloration (steers; Day 3): 1.4
Uncooked ribeye steak discoloration (steers; Day 5): 1.1^b
Uncooked ribeye steak discoloration (steers; Day 7): 1.6

Cc1c(O)cc2c(c1C)O[C@](C)(CCC[C@H](C)CCC[C@H](C)CCCC(C)C)CC2 [GT, gamma-tocopherol]
TBARS content of cooked ground pork patties ([6]; 0 hours following refrigeration): 0.746 mg malonaldehyde/kg sample
TBARS content of cooked ground pork patties ([6]; 24 hours following refrigeration): 1.24 mg malonaldehyde/kg sample
